Assay results reported in PMC4476799, “Englerin A Agonizes the TRPC4/C5 Cation Channels to Inhibit Tumor Cell Line Proliferation” (PLoS ONE, 2015).
Read-outs that look alike come from different tables or passages of the source.

Test system: cancer cell lines from the cancer cell line encyclopedia (CCLE)
Experiment: Cell line profiling (CLiP) proliferation experiment
Format: cell-based
Parameters: ACTIVITY_AREA: scale not given here; AMAX: unit not given here
Conditions: for IC50: read-out: Crossing Point; for EC50: read-out: Inflection Point
Experimental: Compound profiling experiment and data analysis was performed as previously described. Data was imported and plotted using the Tibco Spotfire DXP application. Lines were categorized as sensitive, intermediate and refractory as follows: Amax<-40 & Inflection Point <2 ~ Sensitive, Amax>-20 & Inflection Point >10 ~ Refractory, all else were called Intermediate. Cancer Cell line HG-U133 Plus 2 data was processed and normalized as described. […] Five sets of refractory cell lines were generated from the pool of refractory cell lines trying to match the lineage composition of the set of sensitive cell lines. The limma package was used as previously described to perform the statistical comparison.

[1] = CAS-1, central_nervous_system, astrocytoma_Grade_IV
[2] = CCK-81, large_intestine, adenocarcinoma
[3] = CCRF-CEM, haematopoietic_and_lymphoid_tissue, acute_lymphoblastic_T_cell_leukaemia
[4] = CFPAC-1, pancreas, ductal_carcinoma
[5] = CI-1, haematopoietic_and_lymphoid_tissue, B_cell_lymphoma_unspecified
[6] = CMK, haematopoietic_and_lymphoid_tissue, acute_myeloid_leukaemia
[7] = CMK-11-5, haematopoietic_and_lymphoid_tissue, acute_myeloid_leukaemia
[8] = CML-T1, haematopoietic_and_lymphoid_tissue, blast_phase_chronic_myeloid_leukaemia
[9] = COLO 205, large_intestine, adenocarcinoma
[10] = COLO 668, lung, small_cell_carcinoma
[11] = COLO 775, haematopoietic_and_lymphoid_tissue, chronic_myeloid_leukaemia
[12] = COLO-320, large_intestine, adenocarcinoma
[13] = COLO-680N, oesophagus, squamous_cell_carcinoma
[14] = COR-L23, lung, large_cell_carcinoma
[15] = COR-L47, lung, small_cell_carcinoma
[16] = COR-L88, lung, small_cell_carcinoma
[17] = COR-L279, lung, small_cell_carcinoma
[18] = Calu-6, lung, undifferentiated_carcinoma
[19] = Capan-1, pancreas, ductal_carcinoma
[20] = DBTRG-05MG, central_nervous_system, astrocytoma_Grade_IV
[21] = DK-MG, central_nervous_system, astrocytoma_Grade_IV
[22] = DLD-1, large_intestine, adenocarcinoma
[23] = DMS 114, lung, small_cell_carcinoma
[24] = DMS 273, lung, small_cell_carcinoma
[25] = Daoy, central_nervous_system, NS
[26] = Detroit 562, upper_aerodigestive_tract, NS
[27] = EFM-192A, cell line EFM-192A, breast
[28] = HCC1500, cell line HCC1500, breast

CC(C)[C@@]12C[C@@H](O)[C@@](C)(O1)[C@@H]1CC[C@@H](C)[C@H]1[C@@H]2OC(=O)/C=C/c1ccccc1 [Englerin B]
effect on proliferation of cancer cell lines (524 cancer cell lines from the CCLE): no cancer cell lines have their growth potently inhibited | IC50 (A4/Fuk cells): 18.1 µM | EC50 (A4/Fuk cells): 18.1 µM | IC50 (ACC-MESO-1, ACC-MESO-1 cells): > 30 µM | IC50 (ACC-MESO-1, cell line ACC-MESO-1, pleura, NS): > 30 µM | IC50 (BDCM cells): 16.9 µM | EC50 (BDCM cells): 16.9 µM | EC50 (BHY cells): 9.33 µM | IC50 (BICR 6 cells): 23 µM | EC50 (BICR 6 cells): 23 µM | EC50 (BICR 22 cells): 15 µM | IC50 (CAL-78, bone, dedifferentiated): > 30 µM | IC50 (CAL-78 cells): > 30 µM | ACTIVITY_AREA (CAMA-1, breast, NS): 21.9 | AMAX (CAMA-1, breast, NS): -43.81 | RESPONSE (CAMA-1, breast, NS): INTERMEDIATE | ACTIVITY_AREA [1]: 8.27 | AMAX [1]: -27.8 | RESPONSE [1]: INTERMEDIATE | IC50 [1]: > 30 µM | IC50 (CAS-1 cells): > 30 µM | ACTIVITY_AREA [2]: 19.43 | AMAX [2]: -61.47 | RESPONSE [2]: INTERMEDIATE | IC50 [2]: 24.9 µM | EC50 [2]: 24.9 µM | IC50 (CCK-81 cells): 24.9 µM | EC50 (CCK-81 cells): 24.9 µM | ACTIVITY_AREA [3]: 12.38 | AMAX [3]: -48.26 | RESPONSE [3]: INTERMEDIATE | ACTIVITY_AREA [4]: 25.86 | AMAX [4]: -50.08 | RESPONSE [4]: INTERMEDIATE | ACTIVITY_AREA (CHL-1, skin, NS): 19.98 | AMAX (CHL-1, skin, NS): -60.11 | RESPONSE (CHL-1, skin, NS): INTERMEDIATE | ACTIVITY_AREA (CHP-212, autonomic_ganglia, NS): 33.44 | AMAX (CHP-212, autonomic_ganglia, NS): -55.99 | RESPONSE (CHP-212, autonomic_ganglia, NS): INTERMEDIATE | ACTIVITY_AREA [5]: 19.7 | AMAX [5]: 16.67 | RESPONSE [5]: REFRACTORY | IC50 [5]: > 30 µM | ACTIVITY_AREA [6]: 61.63 | AMAX [6]: -8.06 | RESPONSE [6]: REFRACTORY | IC50 [6]: > 30 µM | IC50 (CMK-11-5, CMK-11-5, haematopoietic_and_lymphoid_tissue, acute_myeloid_leukaemia): 24.1 µM | ACTIVITY_AREA [7]: 101.26 | AMAX [7]: -51.95 | RESPONSE [7]: INTERMEDIATE | IC50 (CML-T1, CML-T1, haematopoietic_and_lymphoid_tissue, blast_phase_chronic_myeloid_leukaemia): 17.9 µM | ACTIVITY_AREA [8]: 42.33 | AMAX [8]: -73.13 | RESPONSE [8]: INTERMEDIATE | ACTIVITY_AREA [9]: 33.02 | AMAX [9]: -61.38 | RESPONSE [9]: INTERMEDIATE | ACTIVITY_AREA [10]: 28.83 | AMAX [10]: -55.03 | RESPONSE [10]: INTERMEDIATE | IC50 (COLO 699, COLO-699, lung, adenocarcinoma): 3.62 µM | IC50 (COLO 704, COLO-704, ovary, NS): 6.82 µM | ACTIVITY_AREA (COLO 741, skin, NS): 12.88 | AMAX (COLO 741, skin, NS): -37.55 | RESPONSE (COLO 741, skin, NS): INTERMEDIATE | ACTIVITY_AREA [11]: 59.22 | AMAX [11]: -93.44 | RESPONSE [11]: INTERMEDIATE | IC50 [11]: 9.44 µM | EC50 [11]: 9.31 µM | ACTIVITY_AREA (COLO 792, skin, NS): 11.82 | AMAX (COLO 792, skin, NS): -22.14 | RESPONSE (COLO 792, skin, NS): INTERMEDIATE | IC50 (COLO 792, skin, NS): > 30 µM | EC50 (COLO 792, skin, NS): 16 µM | IC50 (COLO 792 cells): > 30 µM | EC50 (COLO 792 cells): 16 µM | ACTIVITY_AREA (COLO 829, skin, NS): 31.7 | AMAX (COLO 829, skin, NS): -7.17 | RESPONSE (COLO 829, skin, NS): REFRACTORY | ACTIVITY_AREA [12]: 102.29 | AMAX [12]: -70.01 | RESPONSE [12]: INTERMEDIATE | ACTIVITY_AREA [13]: 26.11 | AMAX [13]: -34.59 | RESPONSE [13]: INTERMEDIATE | ACTIVITY_AREA (COLO-699, lung, adenocarcinoma): 153.56 | AMAX (COLO-699, lung, adenocarcinoma): -71.88 | RESPONSE (COLO-699, lung, adenocarcinoma): INTERMEDIATE | ACTIVITY_AREA (COLO-704, ovary, NS): 138.81 | AMAX (COLO-704, ovary, NS): -63.22 | RESPONSE (COLO-704, ovary, NS): INTERMEDIATE | ACTIVITY_AREA (COLO-800, skin, NS): 66.95 | AMAX (COLO-800, skin, NS): -43.63 | RESPONSE (COLO-800, skin, NS): INTERMEDIATE | ACTIVITY_AREA [14]: 32.4 | AMAX [14]: -39.64 | RESPONSE [14]: INTERMEDIATE | ACTIVITY_AREA [15]: 92.1 | AMAX [15]: -15.76 | RESPONSE [15]: REFRACTORY | ACTIVITY_AREA [16]: 20.83 | AMAX [16]: -31.56 | RESPONSE [16]: INTERMEDIATE | ACTIVITY_AREA [17]: 130.29 | AMAX [17]: -86.84 | RESPONSE [17]: INTERMEDIATE | IC50 (COV318, COV318, ovary, NS): 25.6 µM | EC50 (COV318, COV318, ovary, NS): 25.6 µM | ACTIVITY_AREA (COV318, ovary, NS): 39.59 | AMAX (COV318, ovary, NS): -54.13 | RESPONSE (COV318, ovary, NS): INTERMEDIATE | IC50 (COV504, COV504, ovary, NS): > 30 µM | IC50 (COV504, cell line COV504 (ovary, NS)): > 30 µM | ACTIVITY_AREA (COV504, ovary, NS): 33.53 | AMAX (COV504, ovary, NS): -45.79 | RESPONSE (COV504, ovary, NS): INTERMEDIATE | ACTIVITY_AREA (COV644, ovary, NS): 35.24 | AMAX (COV644, ovary, NS): -28.86 | RESPONSE (COV644, ovary, NS): INTERMEDIATE | IC50 (COV644, ovary, NS): > 30 µM | EC50 (COV644, ovary, NS): 3.05 µM | IC50 (COV644 cells): > 30 µM | EC50 (COV644 cells): 3.05 µM | ACTIVITY_AREA (Calu-3, lung, adenocarcinoma): 19.78 | AMAX (Calu-3, lung, adenocarcinoma): 4.65 | RESPONSE (Calu-3, lung, adenocarcinoma): REFRACTORY | ACTIVITY_AREA [18]: 28.42 | AMAX [18]: -47.13 | RESPONSE [18]: INTERMEDIATE | ACTIVITY_AREA (Caov-3, ovary, adenocarcinoma): 128.76 | AMAX (Caov-3, ovary, adenocarcinoma): -55.06 | RESPONSE (Caov-3, ovary, adenocarcinoma): INTERMEDIATE | ACTIVITY_AREA [19]: 29.63 | AMAX [19]: -25.75 | RESPONSE [19]: INTERMEDIATE | IC50 (Ci-1, CI-1 cells): > 30 µM | IC50 (DAN-G cells): 29.3 µM | EC50 (DAN-G cells): 29.3 µM | ACTIVITY_AREA (DAN-G, pancreas, NS): 26.93 | AMAX (DAN-G, pancreas, NS): -50.77 | RESPONSE (DAN-G, pancreas, NS): INTERMEDIATE | IC50 (DAN-G, pancreas, NS): 29.3 µM | EC50 (DAN-G, pancreas, NS): 29.3 µM | ACTIVITY_AREA [20]: 21.88 | AMAX [20]: -30.64 | RESPONSE [20]: INTERMEDIATE | ACTIVITY_AREA [21]: 33.27 | AMAX [21]: -67.8 | RESPONSE [21]: INTERMEDIATE | IC50 [21]: 16.1 µM | EC50 [21]: 12.5 µM | ACTIVITY_AREA [22]: 71.46 | AMAX [22]: -59.67 | RESPONSE [22]: INTERMEDIATE | ACTIVITY_AREA [23]: 21.61 | AMAX [23]: -57.16 | RESPONSE [23]: INTERMEDIATE | ACTIVITY_AREA [24]: 29.68 | AMAX [24]: -73.92 | RESPONSE [24]: INTERMEDIATE | ACTIVITY_AREA [25]: 43 | AMAX [25]: -39.21 | RESPONSE [25]: INTERMEDIATE | ACTIVITY_AREA [26]: 35.45 | AMAX [26]: -46.18 | RESPONSE [26]: INTERMEDIATE | IC50 [27]: 22.9 µM | EC50 [27]: 22.9 µM | EC50 (EFM-192A, cell line EFM-192A): 22.9 µM | IC50 (GP2d, cell line GP2d, large_intestine): > 30 µM | IC50 (GP2d, cell line GP2d): > 30 µM | IC50 (HCC15, cell line HCC-15, lung): 15.5 µM | IC50 (HCC366, cell line HCC-366, lung): > 30 µM | IC50 (HCC366, cell line HCC-366): > 30 µM | IC50 (HCC1171, cell line HCC-1171, lung): 26.9 µM | IC50 [28]: > 30 µM | EC50 [28]: 8.24 µM | IC50 (HCC1500, cell line HCC1500): > 30 µM | IC50 (HEC-6, cell line HEC-6, endometrium): > 30 µM | IC50 (HEC-6, cell line HEC-6): > 30 µM | IC50 (HEC-50B, cell line HEC-50B, endometrium): > 30 µM
